From patent publication US12319652B2, “Salts and solid forms of (R)-1-(5-methoxy-1H-indol-1-yl)-N,N-dimethylpropan-2-amine” (priority 2021, dated 2025)
Read-outs that look alike come from different tables or passages of the source.

Tests used:
[1] = Solubility determinations in SIF buffers (FaSSIF, FeSSIF, FaSSGF); assay type: physicochemical; conditions: for Solubility in SIF buffers: FaSSIF, FeSSIF and FaSSGF, 37° C., 24 h, concentration tested 30 mg/ml
How it was run: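 Salt forms suspended at 30 mg/ml in FaSSIF, FeSSIF or FaSSGF at 37° C. for 24 h, pH kept in range with 1 M HCl or NaOH. Supernatants sampled at 1, 3, 6 and 24 h, centrifuged and quantified by HPLC as compound 1 free base against amorphous compound 1 calibrants; pellets checked by XRPD for form change.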

[2] = Amorphous forms and thermal study (glass temperature Tg by DSC/TGA); assay type: physicochemical; conditions: for Glass temperatures (Tg): amorphous form
[3] = Dynamic vapor sorption (DVS); assay type: physicochemical; conditions: for DVS isotherm type / hygroscopicity: 0 to 90 to 0% RH; for DVS weight gain at 70% RH: 70% RH (printed 70° RH in Example 8); for DVS desorption behaviour (hysteresis): during desorption
How it was run: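 At 25 °C, 20 to 50 mg sample was dried at 0% RH for 60 minutes, then humidity raised 0-30% in 5% steps and 30-90% in 10% steps, with matching desorption back to 0%. Equilibrium set at dm/dt 0.002%/min; amorphous material was run with fixed 1 hour steps.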

[4] = assay type: physicochemical; conditions: for Change of purity profile / CP: 10-day time point
[5] = Amorphisation activity: Antisolvent/N2 flow, 50 mg
[6] = Amorphisation activity: Freeze dry, 50 mg
[7] = Amorphisation activity: HFIPA Evaporation o/n, 50 mg
[8] = Amorphisation activity: HFIPA Evaporation, 50 mg

Compound: COc1ccc2c(ccn2C[C@@H](C)N(C)C)c1.Cl [Compound 1 HCl]
- Disproportionation in SIF buffers [1]: disproportionation not observed
- Solubility in SIF buffers ([1]; listed as HC): freely soluble
- Solubility in SIF buffers ([1]; listed as compound 1·HCl): Freely soluble
- Form by XRPD [2, 5]: Form A
- Outcome [2, 5]: Crystalline
- Form by XRPD [2, 6]: Form A
- Outcome [2, 6]: Crystalline
- Form by XRPD [2, 7]: Form A
- Outcome [2, 7]: Crystalline
- Form by XRPD [2, 8]: Form A
- Outcome [2, 8]: Crystalline
- Outcome ([2]; Hot plate heat-up, 20 to 236 ° C.): Form A
- Outcome ([2]; Hot stage plate heat-up, 20 to 260 ° C.): Amorphous
- Outcome ([2]; Hot stage plate heat-up, 20 to 275 ° C.): Amorphous
- Outcome ([2]; Open Pan DSC, 20 to 220 to −20, O/N 20 to 250 ° C.): Amorphous
- Outcome ([2]; Sealed DSC, 20 to 220 to −20 to 250 ° C.): Amorphous
- Outcome ([2]; TGA, 20 to 220 to −20 to 250 ° C.): Amorphous
- Glass temperatures (Tg) [2]: 37 °C
- DVS isotherm type / hygroscopicity [3]: slightly hygroscopic isotherm
- DVS isotherm type / hygroscopicity ([3]; listed as Compound 1·HCl): slightly hygroscopic isotherm
- DVS isotherm type / hygroscopicity ([3]; listed as compound 1·HCl): slightly hygroscopic
- DVS weight gain at 70% RH [3]: ca. 0.2 % w/w
- DVS mono and multilayer sorption >80% RH ([3]; >80% RH): ca. 0.5 % w.w
- DVS desorption behaviour (hysteresis) [3]: small water affinity hysteresis
- DVS desorption behaviour (hysteresis) ([3]; listed as Compound 1·HCl): small water affinity hysteresis
- Change of purity profile / CP ([4]; 40° C./75% RH): no reduction in CP
- Change of purity profile / CP ([4]; 40° C./75% RH, listed as compound 1·HCl): little changed
- CP ([4]; 40° C./75% RH, over 10 days): 99.60 % area
- Stability at 40° C./75% RH ([4]; 10 days, listed as compound 1·HCl): Chemically and physically stable

Compound: COc1ccc2c(ccn2C[C@@H](C)[NH+](C)C)c1.O=C(O)/C=C/C(=O)O [Compound 1 fumarate, (R)-1-(5-methoxy-1H-indol-1-yl)-N,N-dimethylpropan-2-amine fumarate]
- Solubility in SIF buffers [1]: freely soluble
- Form by XRPD [2, 5]: Amorphous
- Outcome [2, 5]: Gum
- Form by XRPD [2, 6]: Form A
- Outcome [2, 6]: Crystalline
- Outcome ([2]; Amorphisation activity: Rotary Vac (Methanol), 50 mg): Gum
- Outcome ([2]; Hot plate heat-up, 20 to 165 ° C.): Amorphous
- Outcome ([2]; Hot stage plate heat-up, 20 to 165 ° C.): Amorphous
- Outcome ([2]; Open Pan DSC, 20 to 145 to −20, O/N 20 to 230 ° C.): Amorphous
- Outcome ([2]; Sealed DSC, 20 to 145 to −20 to 230 ° C.): Amorphous
- Outcome ([2]; TGA, 20 to 145 to −20 to 230 ° C.): Amorphous
- Glass temperatures (Tg) [2]: 24 °C
- RH above which pronounced mono, multilayer sorption and probable deliquescence occurred [3]: > 80 % RH
- DVS isotherm type / hygroscopicity ([3]; listed as Compound 1·Fumarate, fumarate): deliquescent type isotherm
- DVS isotherm type / hygroscopicity ([3]; listed as compound 1·Fumarate, fumarate): deliquescent
- DVS weight gain at 70% RH [3]: ca. 1 % w/w
- Change of purity profile / CP ([4]; 40° C./75% RH): reduction in CP
- HPLC peak RRT 0.93 ([4]; salt before storage (t = 0)): 0.36
- HPLC peak RRT 1.00 (reference peak) ([4]; salt before storage (t = 0)): 98.38
- HPLC peak RRT 1.11 ([4]; salt before storage (t = 0)): 0.79
- HPLC peak RRT 1.15 ([4]; salt before storage (t = 0)): 0.27
- HPLC peak RRT 1.17 ([4]; salt before storage (t = 0)): 0.13
- HPLC peak RRT 1.19 ([4]; salt before storage (t = 0)): 0.08
- HPLC peak RRT 0.93 ([4]; t = 5 d at 75% RH at 40° C.): 0.64
- HPLC peak RRT 0.98 ([4]; t = 5 d at 75% RH at 40° C.): 0.05
- HPLC peak RRT 1.00 (reference peak) ([4]; t = 5 d at 75% RH at 40° C.): 96.82
- HPLC peak RRT 1.08 ([4]; t = 5 d at 75% RH at 40° C.): 0.05
- HPLC peak RRT 1.11 ([4]; t = 5 d at 75% RH at 40° C.): 1.06
- HPLC peak RRT 1.15 ([4]; t = 5 d at 75% RH at 40° C.): 0.60
- HPLC peak RRT 1.17 ([4]; t = 5 d at 75% RH at 40° C.): 0.02
- HPLC peak RRT 1.18 ([4]; t = 5 d at 75% RH at 40° C.): 0.27
- HPLC peak RRT 1.20 ([4]; t = 5 d at 75% RH at 40° C.): 0.20
- HPLC peak RRT 1.27 ([4]; t = 5 d at 75% RH at 40° C.): 0.05
- HPLC peak RRT 1.28 ([4]; t = 5 d at 75% RH at 40° C.): 0.03
- HPLC peak RRT 1.39 ([4]; t = 5 d at 75% RH at 40° C.): 0.10
- HPLC peak RRT 1.43 ([4]; t = 5 d at 75% RH at 40° C.): 0.06
- HPLC peak RRT 1.47 ([4]; t = 5 d at 75% RH at 40° C.): 0.06
- HPLC peak RRT 0.93 ([4]; t = 10 d at 75% RH at 40° C.): 0.61
- HPLC peak RRT 0.98 ([4]; t = 10 d at 75% RH at 40° C.): 0.07
- HPLC peak RRT 1.00 (reference peak) ([4]; t = 10 d at 75% RH at 40° C.): 97.08
- HPLC peak RRT 1.08 ([4]; t = 10 d at 75% RH at 40° C.): 0.04
- HPLC peak RRT 1.11 ([4]; t = 10 d at 75% RH at 40° C.): 0.96
- HPLC peak RRT 1.13 ([4]; t = 10 d at 75% RH at 40° C.): 0.05
- HPLC peak RRT 1.15 ([4]; t = 10 d at 75% RH at 40° C.): 0.52
- HPLC peak RRT 1.18 ([4]; t = 10 d at 75% RH at 40° C.): 0.09
- HPLC peak RRT 1.19 ([4]; t = 10 d at 75% RH at 40° C.): 0.12
- HPLC peak RRT 1.20 ([4]; t = 10 d at 75% RH at 40° C.): 0.15
- HPLC peak RRT 1.27 ([4]; t = 10 d at 75% RH at 40° C.): 0.03
- HPLC peak RRT 1.28 ([4]; t = 10 d at 75% RH at 40° C.): 0.05
- HPLC peak RRT 1.34 ([4]; t = 10 d at 75% RH at 40° C.): 0.04
- HPLC peak RRT 1.39 ([4]; t = 10 d at 75% RH at 40° C.): 0.08
- HPLC peak RRT 1.43 ([4]; t = 10 d at 75% RH at 40° C.): 0.04
- HPLC peak RRT 1.45 ([4]; t = 10 d at 75% RH at 40° C.): 0.03
- HPLC peak RRT 1.47 ([4]; t = 10 d at 75% RH at 40° C.): 0.05
